According to patent publication US12692262B2, “Substituted ureas as orexin receptor agonists” (Merck Sharp & Dohme LLC, priority 2020, dated 2026):

Molecular target: T1, human OX2R (Homo sapiens, UniProt O43614)
T1 construct: expressed in transfected cells; host or cells: CHO (Chinese hamster ovary) cells grown under G418 selection
T1 sequence (O43614 1-444): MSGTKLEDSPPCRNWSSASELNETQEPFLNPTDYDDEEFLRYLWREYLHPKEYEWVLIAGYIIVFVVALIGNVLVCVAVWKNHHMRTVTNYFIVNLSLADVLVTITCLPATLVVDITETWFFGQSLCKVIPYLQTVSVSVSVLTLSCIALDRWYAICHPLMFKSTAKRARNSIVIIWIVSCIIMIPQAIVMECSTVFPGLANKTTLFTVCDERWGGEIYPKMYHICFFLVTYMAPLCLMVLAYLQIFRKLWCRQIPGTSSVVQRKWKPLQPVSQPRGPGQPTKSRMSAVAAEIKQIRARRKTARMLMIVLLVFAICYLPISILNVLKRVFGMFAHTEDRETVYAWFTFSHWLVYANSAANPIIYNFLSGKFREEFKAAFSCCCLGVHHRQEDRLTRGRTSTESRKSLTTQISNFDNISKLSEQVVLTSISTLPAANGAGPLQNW
Assay: IPOne (IP-1 accumulation) assay in CHO cells expressing human OX2R
Type: cell-based
Conditions: for EC50: CHO cells expressing human OX2R, IP-One assay, 2 h incubation, four parameter logistic fit, read-out: OX2R Potency, EC50; for % of maximum agonist effect (relative to Orexin A): percent effect vs mean max effect of a reference compound at 1 uM (100% activity vs Orexin A), human OX2R
Description: The utility of the compounds in accordance with the present invention as orexin receptor OX1R and/or OX2R agonists may be readily determined without undue experimentation by methodology well known in the art. Both the OX1R and/or OX2R G-coupled protein receptors (GPCRs) couple through the Gαq signaling pathway, which ultimately promotes calcium mobilization via inositol triphosphate (IP3) production. […] The utility of the compounds in accordance with the present invention as orexin receptor OX1R and/or OX2R agonists may be determined utilizing this assay.
In a typical experiment, the OX1 and OX2 receptor agonist activity is determined in accordance with the following general experimental method. Chinese hamster ovary (CHO) cells expressing human OX1R and/or the human OX2R were grown in Iscove's modified DMEM containing glutaMAX™, 1% G418, 100 U/mL penicillin, 100 μg/mL streptomycin and 10% heat-inactivated qualified fetal bovine serum (FBS). […] During this incubation, IP-one detection reagents were prepared (38:1:1 lysis buffer:D2:AB-cryptate reagents).
For each compound, data were fit to a four parameter logistic fit (ActivityBase software) and the EC50 was reported as the inflection point of the resulting curve. […] The intrinsic orexin receptor agonist activity of a compound which may be used in the present invention may be determined by these assays.

| EC50 [nM] | % of maximum agonist effect (relative to Orexin A) [%] | Structure (SMILES) |
| --- | --- | --- |
| 4.8 | 100.4 | C=CC[C@H](NC(=O)N(CC)C(c1cc(-c2cn3ccnc3c(OC)n2)c(OC)cn1)C(F)(F)F)C(F)(F)F (mixture of isomers) [Example 5-1, 1-ethyl-1-(2,2,2-trifluoro-1-(5-methoxy-4-(8-methoxyimidazo[1,2-a]pyrazin-6-yl)pyridin-2-yl)ethyl)-3-((S)-1,1,1-trifluoropent-4-en-2-yl)urea] |
| 0.9 | 100.8 | CCN(C(=O)N[C@@H](C1CCCC(F)(F)C1)C(F)(F)F)[C@H](C)c1cccc(-c2cn3ccnc3c(OC)n2)c1 (single isomer, unassigned) [Example 3-1] |
| 5.8 | 100.5 | CCN(C(=O)N[C@@H](CCC(F)(F)F)C(F)(F)F)C(C)c1cc(-c2cc(F)c3nccn3c2)c(Cl)cn1 (single isomer, unassigned) [Example 15-1] |
| 7.1 | 98.4 | CCN(C(=O)N[C@@H](CCC(F)(F)F)C(F)(F)F)[C@H](C)c1cccc(-c2ccc3nccn3c2)c1 [Example 1-1, 1-ethyl-3-((S)-1,1,1,5,5,5-hexafluoropentan-2-yl)-1-((R)-1-(3-(imidazo[1,2-a]pyridin-6-yl)phenyl)ethyl)urea] |
| 5.2 | 98.3 | CCN(C(=O)N[C@H](C)c1cccc(F)c1)[C@H](C)c1cccc(-c2cn3ccnc3c(OC)n2)c1 [Example 1-2, 1-ethyl-3-((R)-1-(3-fluorophenyl)ethyl)-1-((R)-1-(3-(8-methoxyimidazo[1,2-a]pyrazin-6-yl)phenyl)ethyl)urea] |
| 6.5 | 99.9 | CCN(C(=O)N[C@@H]1CC[C@H](C(F)(F)F)C1)[C@H](C)c1cccc(-c2cn3ccnc3c(OC)n2)c1 [Example 1-3, 1-ethyl-1-((R)-1-(3-(8-methoxyimidazo[1,2-a]pyrazin-6-yl)phenyl)ethyl)-3-((1R,3S)-3-(trifluoromethyl)cyclopentyl)urea] |
| 6.9 | 96.1 | CCN(C(=O)N[C@H](C)C1CCC(F)(F)CC1)[C@H](C)c1cccc(-c2cn3ccnc3c(OC)n2)c1 [Example 1-4, 3-((R)-1-(4,4-difluorocyclohexyl)ethyl)-1-ethyl-1-((R)-1-(3-(8-methoxyimidazo[1,2-a]pyrazin-6-yl)phenyl)ethyl)urea] |
| 73.4 | 94.9 | CCN(C(=O)NCC(F)(F)F)[C@H](C)c1cccc(-c2cn3ccnc3c(OC)n2)c1 [Example 1-5, (R)-1-ethyl-1-(1-(3-(8-methoxyimidazo[1,2-a]pyrazin-6-yl)phenyl)ethyl)-3-(2,2,2-trifluoroethyl)urea] |
| 193 | 99.0 | CCN(C(=O)NC[C@H]1COCC(=O)N1)[C@H](C)c1cccc(-c2cn3ccnc3c(OC)n2)c1 [Example 1-6, 1-ethyl-1-((R)-1-(3-(8-methoxyimidazo[1,2-a]pyrazin-6-yl)phenyl)ethyl)-3-(((S)-5-oxomorpholin-3-yl)methyl)urea] |

Continued, compound first:

| Structure (SMILES) | EC50 [nM] | % of maximum agonist effect (relative to Orexin A) [%] |
| --- | --- | --- |
| CCN(C(=O)NC(C#N)C1CCCC(F)(F)C1)[C@H](C)c1cccc(-c2cn3ccnc3c(OC)n2)c1 (single isomer, unassigned) [Example 16] | 3.2 | 100.8 |
| CCN(C(=O)NC(CO)C(F)(F)F)[C@H](C)c1cccc(-c2cn3ccnc3c(OC)n2)c1 (single isomer, unassigned) [Example 21] | 50.9 | 96.3 |
| CCN(C(=O)NC(COC(=O)N(C)C)C(F)(F)F)[C@H](C)c1cccc(-c2cn3ccnc3c(OC)n2)c1 (single isomer, unassigned) [Example 23] | 125 | 95.3 |
| CCN(C(=O)NC(CC(=O)N(C)C)C(F)(F)F)[C@H](C)c1cccc(-c2cn3ccnc3c(OC)n2)c1 (single isomer, unassigned) [Example 24] | 144 | 89.1 |
